Here are results for 38 molecules from patent US11643417B2, “Tetrahydrobenzofurodiazepinone compound and pharmaceutical use thereof” (priority 2020, dated 2023).

For orientation: Ki means a dissociation constant, usually derived from enzyme kinetics or from competition with a known ligand.

One experiment deals with human Pim-1 (Homo sapiens (Human), UniProt P11309). As to the kind of experiment: biochemical. It counts as biochemical. The conditions noted are these: Ki converted from IC50; purified human Pim-1, Pim2tide substrate, ADP-Glo; read-out: hPim1 Ki. On the technique in general: In ADP-Glo the light output rises with the ADP produced.
Chain of human Pim-1 (P11309 whole entry): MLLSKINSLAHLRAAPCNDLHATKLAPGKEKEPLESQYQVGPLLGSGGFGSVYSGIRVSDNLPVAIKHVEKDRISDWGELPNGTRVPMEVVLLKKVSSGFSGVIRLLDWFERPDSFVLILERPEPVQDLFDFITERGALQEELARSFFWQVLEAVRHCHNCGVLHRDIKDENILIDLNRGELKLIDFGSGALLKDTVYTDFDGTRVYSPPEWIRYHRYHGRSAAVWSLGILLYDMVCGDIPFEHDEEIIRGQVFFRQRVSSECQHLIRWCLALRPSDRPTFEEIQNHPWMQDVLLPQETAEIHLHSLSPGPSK
With `N#CC[C@H]1CO[C@@H](CCN2CCNC(=O)c3oc4ccc(C(F)(F)F)cc4c32)CO1` (racemic) [Example 142], the Ki is 4.4 nM.

For `O=C1NCCN(CCC2CC(O)CCC2(F)F)c2c1oc1ccc(C(F)(F)F)cc21` (centres unmarked) [Example 38], the inhibitory constant (Ki) came to 0.189 nM.

As for `O=C1NCCN(CCC2CC(CO)C2)c2c1oc1ccc(C(F)(F)F)cc21` (centres unmarked) [Example 117], the inhibitory constant (Ki) stood at 0.801 nM.

On to `O=C1NC2(CC2)CN(CC(F)(F)[C@H]2CO[C@H](CO)CO2)c2c1oc1ccc(C(F)(F)F)cc21` [Example 164], for which the Ki came to 0.0193 nM.

`CN(C)C(=O)C1CCC(CCN2CCNC(=O)c3oc4ccc(C(F)(F)F)cc4c32)CC1` (centres unmarked) [Example 101]: the Ki was 0.775 nM.

For `COC(C1CC(O)(CO)C1)C1(CN2CCNC(=O)c3oc4ccc(C(F)(F)F)cc4c32)CC1` (racemic) [Example 22], the inhibition constant Ki was found to be 0.848 nM.

On to `O=C1NC2(CC2)CN(CC[C@@H]2CO[C@H](CO)CO2)c2c1oc1ccc(C(F)(F)F)cc21` [Example 153], for which the Ki amounted to 0.302 nM.

In the case of `O=C1NCCN(CC(F)(F)[C@H]2CO[C@@H](CO)CO2)c2c1oc1ccc(C(F)(F)F)cc21` [Example 96], the Ki worked out at 0.0283 nM.

For the molecule `O=C1NCCN(CC[C@H]2CC[C@@](O)(C(F)(F)F)CC2)c2c1oc1ccc(C(F)(F)F)cc21` [Example 84], the Ki came to 0.236 nM.

On to `CC1(C)OCC(C(F)(F)CN2CCNC(=O)c3oc4ccc(C(F)(F)F)cc4c32)CO1` [Example 71], for which the inhibition constant Ki is 1.3 nM.

Turning to `O=C1CCC(CCN2CCNC(=O)c3oc4ccc(C(F)(F)F)cc4c32)CC1` [Example 75], the Ki stood at 1.62 nM.

As for `O=C1NCCN(CCC2CCC(C(=O)O)CC2)c2c1oc1ccc(C(F)(F)F)cc21` (centres unmarked) [Example 86], the inhibitory constant (Ki) came out at 4.06 nM.

Turning to `O=C1NCCN(CC[C@H]2CC[C@](O)(CCO)CC2)c2c1oc1ccc(C(F)(F)F)cc21` [Example 108], the Ki is 0.298 nM.

For `NC(=O)C1CCC(CCN2CCNC(=O)c3oc4ccc(C(F)(F)F)cc4c32)CC1` (centres unmarked) [Example 104], the Ki was found to be 0.819 nM.

For `O=C1NCCN(CC(F)(F)C2CC(OC(F)F)CCO2)c2c1oc1ccc(C(F)(F)F)cc21` (centres unmarked) [Example 54], the Ki stood at 0.133 nM.

`CC1COCC(CCN2CCNC(=O)c3oc4ccc(C(F)(F)F)cc4c32)O1` (racemic) [Example 115]: the inhibition constant (Ki) amounted to 0.672 nM.

As for `O=C1NCCN(CCC2CCC(CO)CCO2)c2c1oc1ccc(C(F)(F)F)cc21` (centres unmarked) [Example 9], the Ki amounted to 0.481 nM.

Turning to `CNC(=O)C1CCC(CCN2CCNC(=O)c3oc4ccc(C(F)(F)F)cc4c32)CC1` (centres unmarked) [Example 100], the inhibition constant (Ki) was determined as 1 nM.

On to `O=C1NCCN(CCC2COCC(CF)O2)c2c1oc1ccc(C(F)(F)F)cc21` (racemic) [Example 134], for which the inhibitory constant (Ki) was determined as 0.753 nM.

For `O=C1CCC(C(F)(F)CN2CCNC(=O)c3oc4ccc(C(F)(F)F)cc4c32)CC1` [Example 166], the inhibitory constant (Ki) was found to be 0.189 nM.

Regarding `CC1(C)OC[C@]2(CC[C@H](CCN3CCNC(=O)c4oc5ccc(C(F)(F)F)cc5c43)CC2)O1` [Example 2-01], the Ki came out at 1.6 nM.

`O=C1NC2(CC2)CN(CC(F)(F)[C@H]2CC[C@H](O)CC2)c2c1oc1ccc(C(F)(F)F)cc21` [Example 149]: the inhibition constant Ki was found to be 0.0337 nM.

With `O=C1NCCN(CC(F)(F)C2CC(O)(C(F)F)CCO2)c2c1oc1ccc(C(F)(F)F)cc21` (single isomer, unassigned) [Example 52], the Ki was 0.104 nM.

Turning to `CC1(CO)CCC(CCN2CCNC(=O)c3oc4ccc(C(F)(F)F)cc4c32)CC1` (centres unmarked) [Example 94], the inhibition constant (Ki) was determined as 0.129 nM.

Turning to `O=C1NCCN(CC(F)(F)C2CC(O)CCC2(F)F)c2c1oc1ccc(C(F)(F)F)cc21` (centres unmarked) [Example 62], the Ki is 0.0461 nM.

Take `CC(C)(O)C1CCC(CCN2CCNC(=O)c3oc4ccc(C(F)(F)F)cc4c32)CC1` (centres unmarked) [Example 98]: the inhibitory constant (Ki) is 1.07 nM.

On to `CS(=O)(=O)C[C@H]1CO[C@H](CCN2CCNC(=O)c3oc4ccc(C(F)(F)F)cc4c32)CO1` (racemic) [Example 130], for which the Ki was determined as 1.16 nM.

On to `C[C@@H]1CO[C@@H](CCN2CCNC(=O)c3oc4ccc(C(F)(F)F)cc4c32)CO1` [Example 44], for which the Ki turned out to be 1.04 nM.

For `O=C1NCCN(CCC2CCS(=O)(=O)CC2)c2c1oc1ccc(C(F)(F)F)cc21` [Example 87], the Ki was 1.97 nM.

For the molecule `C[C@H]1CN(CC[C@H]2CC[C@](O)(CO)CC2)c2c(oc3ccc(C(F)(F)F)cc23)C(=O)N1` [Example 2-06], the inhibitory constant (Ki) is 0.074 nM.

Take `O=C1NCCN(CCC23CC(CO)(C2)C3)c2c1oc1ccc(C(F)(F)F)cc21` [Example 113]: the Ki came to 0.726 nM.

In the case of `CC(C)(O)C1(O)CCOC(C(F)(F)CN2CCNC(=O)c3oc4ccc(C(F)(F)F)cc4c32)C1` (centres unmarked) [Example 30], the Ki turned out to be 0.0577 nM.

Still in this experiment, the particulars now being: hPim1 Ki (nM), Ki converted from IC50; purified human Pim-1, Pim2tide substrate, ADP-Glo.
Molecule `O=C1NCCN(CC(F)(F)C2CC(CO)CCO2)c2c1oc1ccc(C(F)(F)F)cc21` (single isomer, unassigned) [Example 15] registered a Ki of 0.0289 nM.

In turn, `CC1(O)CCOC(C(F)(F)CN2CCNC(=O)c3oc4ccc(C(F)(F)F)cc4c32)C1` (racemic) [Example 12, 1-(2,2-difluoro-2-(4-hydroxy-4-methyltetrahydro-2H-pyran-2-yl)ethyl)-9-(trifluoromethyl)-1,2,3,4-tetrahydro-5H-benzofuro[3,2-e][1,4]diazepin-5-one] came in with an inhibition constant Ki of 0.0388 nM.

With `O=C1NCCN(CC(F)(F)C2CC(CO)CCO2)c2c1oc1ccc(C(F)(F)F)cc21` (single isomer, unassigned) [Example 14], the affinity corresponds to a Ki of 0.0334 nM.

`O=C1NC2(CC2)CN(CCC2CCC(O)CC2)c2c1oc1ccc(C(F)(F)F)cc21` (centres unmarked) [Example 125] displayed an inhibition constant (Ki) of 0.0592 nM.

The test system of the next experiment is cells derived from chronic myelogenous leukemia.
Test: not given
The conditions noted are these: Non-Patent Document 15; cited from earlier work.
As to `O=C1NC(=O)/C(=C/c2cccc(C(F)(F)F)c2)S1` [SMI-4a], the “growth inhibitory and apoptosis-inducing effects” value was “growth inhibitory and apoptosis-inducing effects”.

Another experiment has as its system mouse cancer-bearing model.
Test: not given
The conditions noted are these: Non-Patent Documents 16 and 17; cited from earlier work.
In the case of `C[C@H]1CN(c2c(NC(=O)c3ccc(F)c(-c4c(F)cccc4F)n3)cnc3c2CC[C@H]3O)C[C@@H](N)[C@@H]1O` [INCB053914], the “tumor growth inhibitory effect” value is on record as “tumor growth inhibitory effect”.

The subject of a further experiment is mouse LN model animals.
Test: not given
The conditions noted are these: Non-Patent Document 18; cited from earlier work.
On to `O=C1NC(=O)/C(=C/c2cccc(C(F)(F)F)c2)S1` [SMI-4a], for which the glomerular damage result is “reduce glomerular damage”, the mortality result is reported as “improve mortality” and the urinary albumin/creatinine ratio entry is reported as “reduce urinary albumin/creatinine ratio”.
